According to PMC2726771 (The Journal of neuroscience : the official journal of the …, 2009):

Legend:
Assay type in all cases: cell-based
α3β2S192C nAChR = α3β2S192C nAChR (Rattus norvegicus, UniProt P04757+P12390, S218C); settings: Hill coefficient
α3β2S148C nAChR = α3β2S148C nAChR (Rattus norvegicus, UniProt P04757+P12390, S174C); settings: Hill coefficient
α3β2T193C nAChR = α3β2T193C nAChR (Rattus norvegicus, UniProt P04757+P12390, T219C); settings: Hill coefficient
α3A106Cβ2 nAChR = α3A106Cβ2 nAChR (Rattus norvegicus, UniProt P04757+P12390, A133C); settings: Hill coefficient
Sequence of α3A106Cβ2 nAChR (P04757 26-499 A133C): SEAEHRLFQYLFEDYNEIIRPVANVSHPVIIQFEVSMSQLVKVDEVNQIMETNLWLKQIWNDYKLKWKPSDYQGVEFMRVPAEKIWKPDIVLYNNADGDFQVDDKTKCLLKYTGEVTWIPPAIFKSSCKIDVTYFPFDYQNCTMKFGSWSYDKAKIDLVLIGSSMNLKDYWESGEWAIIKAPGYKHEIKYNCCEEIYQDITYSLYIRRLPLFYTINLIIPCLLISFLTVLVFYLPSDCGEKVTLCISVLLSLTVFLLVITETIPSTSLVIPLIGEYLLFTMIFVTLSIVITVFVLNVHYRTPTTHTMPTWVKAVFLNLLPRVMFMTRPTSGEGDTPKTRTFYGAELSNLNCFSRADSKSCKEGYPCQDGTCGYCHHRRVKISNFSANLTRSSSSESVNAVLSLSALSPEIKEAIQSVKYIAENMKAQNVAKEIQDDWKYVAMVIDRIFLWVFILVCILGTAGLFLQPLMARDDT
Sequence of α3A106Cβ2 nAChR (P12390 25-500): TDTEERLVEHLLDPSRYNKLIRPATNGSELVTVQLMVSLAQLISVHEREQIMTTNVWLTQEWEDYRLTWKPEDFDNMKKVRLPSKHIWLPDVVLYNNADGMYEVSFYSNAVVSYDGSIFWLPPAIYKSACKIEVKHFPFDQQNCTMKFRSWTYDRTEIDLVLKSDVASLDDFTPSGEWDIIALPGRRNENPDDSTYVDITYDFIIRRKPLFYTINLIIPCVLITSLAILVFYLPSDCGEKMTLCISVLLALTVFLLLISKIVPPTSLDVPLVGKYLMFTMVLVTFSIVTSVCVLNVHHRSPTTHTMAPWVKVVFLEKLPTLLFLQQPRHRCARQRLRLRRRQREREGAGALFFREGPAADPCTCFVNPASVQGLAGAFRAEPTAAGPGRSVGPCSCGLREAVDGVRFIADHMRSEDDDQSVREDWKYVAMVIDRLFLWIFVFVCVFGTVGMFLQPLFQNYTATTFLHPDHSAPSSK

α3T115Cβ2 nAChR = α3T115Cβ2 nAChR (Rattus norvegicus, UniProt P04757+P12390, T142C); settings: Hill coefficient
Sequence of α3T115Cβ2 nAChR (P04757 26-499 T142C): as the sequence (P04757 26-499 A133C) above, with C108A, T117C counted along it
Sequence of α3T115Cβ2 nAChR (P12390 25-500): as the sequence (P12390 25-500) above

α3S161Cβ2 nAChR = α3S161Cβ2 nAChR (Rattus norvegicus, UniProt P04757+P12390, S188C); settings: Hill coefficient
Sequence of α3S161Cβ2 nAChR (P04757 26-499 S188C): as the sequence (P04757 26-499 A133C) above, with C108A, S163C counted along it
Sequence of α3S161Cβ2 nAChR (P12390 25-500, stated change not applied): as the sequence (P12390 25-500) above

α3β2 wt nAChR = α3β2 wt nAChR (Rattus norvegicus, UniProt P04757+P12390); settings: Hill coefficient
Sequence of α3β2 wt nAChR (P04757 26-499): as the sequence (P04757 26-499 A133C) above, with C108A counted along it
Sequence of α3β2 wt nAChR (P12390 25-500): as the sequence (P12390 25-500) above

α3β2T150C nAChR = α3β2T150C nAChR (Rattus norvegicus, UniProt P04757+P12390, T176C)
Sequence of α3β2T150C nAChR (P04757 26-499): as the sequence (P04757 26-499 A133C) above, with C108A counted along it
Sequence of α3β2T150C nAChR (P12390 25-500 T176C): as the sequence (P12390 25-500) above, with T152C counted along it

Sequence of α3β2T193C nAChR (P04757 26-499): as the sequence (P04757 26-499 A133C) above, with C108A counted along it
Sequence of α3β2T193C nAChR (P12390 25-500 T219C): as the sequence (P12390 25-500) above, with T195C counted along it
Sequence of α3β2S148C nAChR (P04757 26-499): as the sequence (P04757 26-499 A133C) above, with C108A counted along it
Sequence of α3β2S148C nAChR (P12390 25-500 S174C): as the sequence (P12390 25-500) above, with S150C counted along it
Sequence of α3β2S192C nAChR (P04757 26-499): as the sequence (P04757 26-499 A133C) above, with C108A counted along it
Sequence of α3β2S192C nAChR (P12390 25-500 S218C): as the sequence (P12390 25-500) above, with S194C counted along it

| ACh Response nH (α3β2S192C nAChR) | ACh Response nH (α3β2S148C nAChR) | ACh Response nH (α3β2T193C nAChR) | ACh Response nH (α3A106Cβ2 nAChR) | ACh Response nH (α3T115Cβ2 nAChR) | ACh Response nH (α3S161Cβ2 nAChR) | ACh Response nH (α3β2 wt nAChR) | ACh nH, +Mor data set, pre-treatment (α3β2T150C nAChR; ACh + 10 μM Mor) | ACh nH, +Mor data set, post-treatment (α3β2T150C nAChR; ACh + 10 μM Mor, after 100 μM MTSET + 200 μM ACh) | ACh Emax, +Mor data set, pre-treatment (α3β2T150C nAChR; ACh + 10 μM Mor, normalized to ACh response at 1000 μM) | ACh Response nH (α3β2T150C nAChR; Hill coefficient, pre-treatment in Fig. 4) | ACh nH post-treatment (α3β2T150C nAChR; after 100 μM MTSET + 200 μM ACh) | ACh Emax post-treatment (α3β2T150C nAChR; after 100 μM MTSET + 200 μM ACh, normalized to ACh response at 1000 μM) | ACh Emax pre-treatment (α3β2T150C nAChR; normalized to ACh response at 1000 μM) | SMILES | reduction of maximum Mor-evoked current (efficacy) (α3β2T150C nAChR; after 100 μM reagent, four 30-sec doses) |
| --- | --- | --- | --- | --- | --- | --- | --- | --- | --- | --- | --- | --- | --- | --- | --- |
| 0.57 ± 0.05 | 0.79 ± 0.08 | 0.74 ± 0.07 | 0.64 ± 0.04 | 0.96 ± 0.09 | 0.77 ± 0.07 | 0.82 ± 0.06 | 1.13 ± 0.24 | 0.98 ± 0.02 | 1.33 ± 0.05 | 0.84 ± 0.06 | 0.79 ± 0.11 | 0.26 ± 0.01 | 1.00 | CC(=O)OCC[N+](C)(C)C [ACh] |  |
|  |  |  |  |  |  |  |  |  |  |  |  |  |  | C[N+](C)(C)CCOC(=O)CBr [BrACh] | very little effect |
